Source: patent US20240360146A1, “BRUTON'S TYROSINE KINASE AND MUTANT DEGRADER, COMPOSITION AND APPLICATION THEREOF” (HANGZHOU HEALZEN THERAPEUTICS CO., LTD., priority 2021, published 2024)

Biological target: T1, BTK (Homo sapiens, UniProt Q06187)
T1 construct: endogenous in cells; host or cells: Mino cells
Assay: BTK degradation activity test in Mino cells
Type: cell-based
Conditions: 16 h incubation, Western blot or Elisa
In short: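 Mino cells treated with a concentration series of compound for 16 h, then lysed; total protein by BCA. BTK quantified by Western blot or ELISA, degradation rate calculated against blank control, and DC50 fitted from the degradation curve.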

T1 sequence (Q06187 whole entry): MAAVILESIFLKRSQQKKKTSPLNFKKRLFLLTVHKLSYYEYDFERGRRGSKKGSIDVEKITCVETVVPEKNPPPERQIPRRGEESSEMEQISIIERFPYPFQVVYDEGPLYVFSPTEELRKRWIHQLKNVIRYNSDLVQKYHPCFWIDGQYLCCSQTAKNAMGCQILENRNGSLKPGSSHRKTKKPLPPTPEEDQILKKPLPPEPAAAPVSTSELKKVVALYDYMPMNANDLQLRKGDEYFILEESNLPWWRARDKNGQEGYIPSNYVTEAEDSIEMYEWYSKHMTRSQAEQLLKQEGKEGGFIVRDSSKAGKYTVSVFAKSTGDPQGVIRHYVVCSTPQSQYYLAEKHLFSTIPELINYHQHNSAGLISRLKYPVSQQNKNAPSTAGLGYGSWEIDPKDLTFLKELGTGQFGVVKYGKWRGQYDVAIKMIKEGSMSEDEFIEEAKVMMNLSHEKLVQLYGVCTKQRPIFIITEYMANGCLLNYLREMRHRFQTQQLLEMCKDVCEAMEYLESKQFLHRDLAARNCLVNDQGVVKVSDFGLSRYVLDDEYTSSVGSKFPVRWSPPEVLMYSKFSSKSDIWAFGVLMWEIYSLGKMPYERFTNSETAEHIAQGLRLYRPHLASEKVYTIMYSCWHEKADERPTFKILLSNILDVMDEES

| SMILES | DC50 |
| --- | --- |
| NC(=O)c1nnc(N2CC3CC(N4CC5CCCN5C4=O)C2C3)nc1Nc1ccc(C2CCN(CC3CCN(c4ccc5c(c4)C(=O)N(C4CCC(=O)NC4=O)C5=O)CC3)CC2)cc1 (stereo not drawn) [Compound 074, 5-((4-(1-((1-(2-(2,6-dioxopiperidin-3-yl)-1,3-dioxoisoindol-5-yl)piperidin-4-yl)methyl)piperidin-4-yl)phenyl)amino)-3-(6-(3-oxotetrahydro-1H-pyrrolo[1,2-c]imidazol-2(3H)-yl)-2-azabicyclo[2.2.1]heptan-2-yl)-1,2,4-triazin-6-carboxamide] | < 1 nM |
| CN1CCN(C2CC3CCC2N(c2nnc(C(N)=O)c(Nc4ccc(C5CCN(CC6CCN(c7ccc8c(c7)C(=O)N(C7CCC(=O)NC7=O)C8=O)CC6)CC5)cc4)n2)C3)C1=O (stereo not drawn) [Compound 075, 5-((4-(1-((1-(2-(2,6-dioxopiperidin-3-yl)-1,3-dioxoisoindol-5-yl)piperidin-4-yl)methyl)piperidin-4-yl)phenyl)amino)-3-(6-(3-methyl-2-oxoimidazolin-1-yl)-2-azabicyclo[2.2.2]octan-2-yl)-1,2,4-triazin-6-carboxamide] | > 1 nM |
| CN1CCN(C2CCCN(c3nnc(C(N)=O)c(Nc4ccc(C5CCN(CC6CCN(c7ccc8c(c7)C(=O)N(C7CCC(=O)NC7=O)C8=O)C6)CC5)cc4)n3)C2)C1=O (stereo not drawn) [Compound 076, 5-((4-(1-((1-(2-(2,6-dioxopiperidin-3-yl)-1,3-dioxoisooctyl-5-yl)pyrrolidin-3-yl)methyl)piperidin-4-yl)phenyl)amino)-3-(3-(3-methyl-2-oxoimidazolin-1-yl)piperidin-1-yl)-1,2,4-triazin-6-carboxamide] | < 1 nM |
| CN1CCN(C2CCCN(c3nnc(C(N)=O)c(Nc4ccc(C5CCN(C6CN(c7ccc8c(c7)C(=O)N(C7CCC(=O)NC7=O)C8=O)C6)CC5)cc4)n3)C2)C1=O (stereo not drawn) [Compound 077, 5-((4-(1-(1-(2-(2,6-dioxopiperidin-3-yl)-1,3-dioxoisoindol-5-yl)azetidin-3-yl)piperidin-4-yl)phenyl)amino)-3-(3-(3-methyl-2-oxoimidazolin-1-yl)piperidin-1-yl)-1,2,4-triazin-6-carboxamide] | < 1 nM |
| CN1CCN(C2CCCN(c3nnc(C(N)=O)c(Nc4ccc(C5(C)CCN(C6CCN(c7ccc8c(c7)C(=O)N(C7CCC(=O)NC7=O)C8=O)CC6)CC5)cc4)n3)C2)C1=O (stereo not drawn) [Compound 078, 5-((4-(1′-(2-(2,6-dioxopiperidin-3-yl)-1,3-dioxoisoindol-5-yl)-4-methyl-[1,4′-bipiperidin]-4-yl)phenyl)amino)-3-(3-(3-methyl-2-oxoimidazolidin-1-yl)piperidin-1-yl)-1,2,4-triazin-6-carboxamide] | < 1 nM |
| CN1CCN(C2CCCN(c3nnc(C(N)=O)c(Nc4ccc(C5(C)CCN(C6CN(c7ccc8c(c7)C(=O)N(C7CCC(=O)NC7=O)C8=O)C6)CC5)cc4)n3)C2)C1=O (stereo not drawn) [Compound 079, 5-((4-(1-(1-(2-(2,6-dioxopiperidin-3-yl)-1,3-dioxoisoindol-5-yl)azetidin-3-yl)-4-methylpiperidin-4-yl)phenyl)amino)-3-(3-(3-methyl-2-oxoimidazolin-1-yl)piperidin-1-yl)-1,2,4-triazin-6-carboxamide] | < 1 nM |
| CN1CCN(C2CCCN(c3nnc(C(N)=O)c(Nc4ccc5c(c4)CCN(C4CN(c6ccc7c(c6)C(=O)N(C6CCC(=O)NC6=O)C7=O)C4)C5)n3)C2)C1=O (stereo not drawn) [Compound 080] | < 1 nM |
| CN1CCN(C2CCCN(c3nnc(C(N)=O)c(Nc4ccc5c(c4)CCN(CC4CCN(c6ccc7c(c6)C(=O)N(C6CCC(=O)NC6=O)C7=O)CC4)C5)n3)C2)C1=O (stereo not drawn) [Compound 081, 5-((2-((1-(2-(2,6-dioxopiperidin-3-yl)-1,3-dioxoisoindol-5-yl)piperidin-4-yl)methyl)-1,2,3,4-tetrahydroisoquinolin-6-yl)amino)-3-(3-(3-methyl-2-oxoimidazolin-1-yl)piperidin-1-yl)-1,2,4-triazin-6-carboxamide] | < 1 nM |
| CN1CCN(C2CCCN(c3nnc(C(N)=O)c(Nc4ccc(N5CCN(CC6CCN(c7ccc8c(c7)C(=O)N(C7CCC(=O)NC7=O)C8=O)CC6)CC5)cc4)n3)C2)C1=O (stereo not drawn) [Compound 082, 5-((4-(4-((1-(2-(2,6-dioxopiperidin-3-yl)-1,3-dioxoisoindol-5-yl)piperidin-4-yl)methyl)piperazin-1-yl)phenyl)amino)-3-(3-(3-methyl-2-oxoimidazolin-1-yl)piperidin-1-yl)-1,2,4-triazin-6-carboxamide] | < 1 nM |
| CN1CCN(C2CCCN(c3nnc(C(N)=O)c(Nc4ccc(C5CCN(C6CCN(c7ccc8c(c7)C(=O)N(C7CCC(=O)NC7=O)C8=O)CC6)CC5)cc4)n3)C2)C1=O (stereo not drawn) [Compound 083, 5-((4-(1′-(2-(2,6-dioxopiperidin-3-yl)-1,3-dioxoisoindol-5-yl)-[1,4′-bipiperidin]-4-yl)phenyl)amino)-3-(3-(3-methyl-2-oxoimidazolin-1-yl)piperidin-1-yl)-1,2,4-triazin-6-carboxamide] | < 1 nM |
| CN1CCN(C2CCCN(c3nnc(C(N)=O)c(Nc4ccc(N5CCC(N6CCN(CC#Cc7ccc8c(c7)CN(C7CCC(=O)NC7=O)C8=O)CC6)CC5)cc4)n3)C2)C1=O (stereo not drawn) [Compound 084] | < 1 nM |
| CN1CCN(C2CCCN(c3nnc(C(N)=O)c(Nc4ccc(C5CCN(CC6CCN(c7cc8c(cc7F)C(=O)N(C7CCC(=O)NC7=O)C8=O)CC6)CC5)cc4)n3)C2)C1=O (stereo not drawn) [Compound 085, 5-((4-(1-((1-(2-(2,6-dioxopiperidin-3-yl)-6-fluoro-1,3-dioxoisoindol-5-yl)piperidin-4-yl)methyl)piperidin-4-yl)phenyl)amino)-3-(3-(3-methyl-2-oxoimidazolin-1-yl)piperidin-1-yl)-1,2,4-triazin-6-carboxamide] | < 1 nM |
| CN1CCN(C2CCCN(c3nnc(C(N)=O)c(Nc4ccc(C5CCN(CC6CCN(c7ccc8c(c7)C(=O)N(C7CCC(=O)NC7=O)C8)CC6)CC5)cc4)n3)C2)C1=O (stereo not drawn) [Compound 086, 5-((4-(1-((1-(2-(2,6-dioxopiperidin-3-yl)-3-oxoisoindol-5-yl)piperidin-4-yl)methyl)piperidin-4-yl)phenyl)amino)-3-(3-(3-methyl-2-oxoimidazolin-1-yl)piperidin-1-yl)-1,2,4-triazin-6-carboxamide] | < 1 nM |
| CN1CCN(C2CCCN(c3nnc(C(N)=O)c(Nc4ccc(C5CCN(CC6CCN(c7ccc8c(c7)CN(C7CCC(=O)NC7=O)C8=O)CC6)CC5)cc4)n3)C2)C1=O (stereo not drawn) [Compound 087, 5-((4-(1-((1-(2-(2,6-dioxopiperidin-3-yl)-1-oxoisooctyl-5-yl)piperidin-4-yl)methyl)piperidin-4-yl)phenyl)amino)-3-(3-(3-methyl-2-oxyimidazolin-1-yl)piperidin-1-yl)-1,2,4-triazin-6-carboxamide] | < 1 nM |
| CN1CCN(C2CCCN(c3nnc(C(N)=O)c(Nc4ccc(C5CCN(CC6CCN(c7ccc8c(c7)n(C)c(=O)n8C7CCC(=O)NC7=O)CC6)CC5)cc4)n3)C2)C1=O (stereo not drawn) [Compound 088, 5-((4-(1-((1-(1-(2,6-dioxopiperidin-3-yl)-3-methyl-2-oxo-2,3-dihydro-1H-benzo[d]imidazol-5-yl)piperidin-4-yl)methyl)piperidin-4-yl)phenyl)amino)-3-(3-(3-methyl-2-oxoimidazolin-1-yl)piperidin-1-yl)-1,2,4-triazin-6-carboxamide] | < 1 nM |
| NC(=O)c1nnc(N2CCCC(N3CCN(c4ccccc4)C3=O)C2)nc1Nc1ccc(C2CCN(CC3CCN(c4ccc5c(c4)C(=O)N(C4CCC(=O)NC4=O)C5=O)C3)CC2)cc1 (stereo not drawn) [Compound 089, 5-((4-(1-((1-(2-(2,6-dioxopiperidin-3-yl)-1,3-dioxoisoindol-5-yl)pyrrolidin-3-yl)methyl)piperidin-4-yl)phenyl)amino)-3-(3-(2-oxo-3-phenylimidazolin-1-yl)piperidin-1-yl)-1,2,4-triazin-6-carboxamide] | < 1 nM |
| NC(=O)c1nnc(N2CCCC(N3CCN(c4ccccc4)C3=O)C2)nc1Nc1ccc(C2CCN(C3CN(c4ccc5c(c4)C(=O)N(C4CCC(=O)NC4=O)C5=O)C3)CC2)cc1 (stereo not drawn) [Compound 090, 5-((4-(1-(1-(2-(2,6-dioxopiperidin-3-yl)-1,3-dioxoisoindol-5-yl)azetidin-3-yl)piperidin-4-yl)phenyl)amino)-3-(3-(2-oxo-3-phenylimidazolin-1-yl)piperidin-1-yl)-1,2,4-triazin-6-carboxamide] | < 1 nM |
| CC1(c2ccc(Nc3nc(N4CCCC(N5CCN(c6ccccc6)C5=O)C4)nnc3C(N)=O)cc2)CCN(C2CCN(c3ccc4c(c3)C(=O)N(C3CCC(=O)NC3=O)C4=O)CC2)CC1 (stereo not drawn) [Compound 091, 5-((4-(1′-(2-(2,6-dioxopiperidin-3-yl)-1,3-dioxoisoindol-5-yl)-4-methyl-[1,4′-bipiperidin]-4-yl)phenyl)amino)-3-(3-(2-oxo-3-phenylimidazolin-1-yl)piperidin-1-yl)-1,2,4-triazin-6-carboxamide] | > 1 nM |
| CC1(c2ccc(Nc3nc(N4CCCC(N5CCN(c6ccccc6)C5=O)C4)nnc3C(N)=O)cc2)CCN(C2CN(c3ccc4c(c3)C(=O)N(C3CCC(=O)NC3=O)C4=O)C2)CC1 (stereo not drawn) [Compound 092, 5-((4-(1-(1-(2-(2,6-dioxopiperidin-3-yl)-1,3-dioxoisoindol-5-yl)azetidine-3-yl)-4-methylpiperidin-4-yl)phenyl)amino)-3-(3-(2-oxo-3-phenylimidazolin-1-yl)piperidin-1-yl)-1,2,4-triazin-6-carboxamide] | > 1 nM |
| NC(=O)c1nnc(N2CCCC(N3CCN(c4ccccc4)C3=O)C2)nc1Nc1ccc2c(c1)CCN(C1CN(c3ccc4c(c3)C(=O)N(C3CCC(=O)NC3=O)C4=O)C1)C2 (stereo not drawn) [Compound 093] | > 1 nM |
| NC(=O)c1nnc(N2CCCC(N3CCN(c4ccccc4)C3=O)C2)nc1Nc1ccc2c(c1)CCN(CC1CCN(c3ccc4c(c3)C(=O)N(C3CCC(=O)NC3=O)C4=O)CC1)C2 (stereo not drawn) [Compound 094, 5-((2-((1-(2-(2,6-dioxopiperidin-3-yl)-1,3-dioxoisoindol-5-yl)piperidin-4-yl)methyl)-1,2,3,4-tetrahydroisoquinolin-6-yl)amino)-3-(3-(2-oxo-3-phenylimidazolin-1-yl)piperidin-1-yl)-1,2,4-triazin-6-carboxamide] | < 1 nM |
